Laboratory results published in PMC11785640, “Structure-based inhibition of acetylcholinesterase and butyrylcholinesterase with 2-Aryl-6-carboxamide benzoxazole derivatives: synthesis, enzymatic assay, and in silico studies” (Molecular Diversity, 2024).

Assays:
[1] = target: AChE (Electrophorus electricus, UniProt O42275); experiment: biochemical; assay type: biochemical; conditions: for Ki: from Lineweaver-Burk graphs, mean ± SD, triplicate; for Selectivity index (AChE/BChE): ratio AChE/BChE
Procedure: (§1) These analogs were dissolved in DMSO at an initial concentration of 1 mg/mL. Around 1% of DMSO was present in the final reaction mixture. Acetylthiocholine iodide (AChI)/butyrylcholine iodide (BChI) were used as substrates for enzymatic reactions. […] The mixture was incubated at 20 °C for 20 min. Then, 50 µL of 5,5’-dithio-bis 2-nitro-benzoic acid (DTNB, 0.5 mM) and AChI/BChI were added and enzymatic reactions were initiated.
(§2) Lineweaver-Burk graphs were used for the calculation of Ki and the other parameters as described in prior studies. The Ki values were taken out from this graph. All analyses were conducted independently in triplicate, and result data are expressed as mean values ± SD [59].

[2] = target: BChE (Equus caballus, UniProt P81908); experiment: biochemical; assay type: biochemical; conditions: for Ki: from Lineweaver-Burk graphs, mean ± SD, triplicate
Procedure: as §1, §2

AChE, sequence (O42275 24-633): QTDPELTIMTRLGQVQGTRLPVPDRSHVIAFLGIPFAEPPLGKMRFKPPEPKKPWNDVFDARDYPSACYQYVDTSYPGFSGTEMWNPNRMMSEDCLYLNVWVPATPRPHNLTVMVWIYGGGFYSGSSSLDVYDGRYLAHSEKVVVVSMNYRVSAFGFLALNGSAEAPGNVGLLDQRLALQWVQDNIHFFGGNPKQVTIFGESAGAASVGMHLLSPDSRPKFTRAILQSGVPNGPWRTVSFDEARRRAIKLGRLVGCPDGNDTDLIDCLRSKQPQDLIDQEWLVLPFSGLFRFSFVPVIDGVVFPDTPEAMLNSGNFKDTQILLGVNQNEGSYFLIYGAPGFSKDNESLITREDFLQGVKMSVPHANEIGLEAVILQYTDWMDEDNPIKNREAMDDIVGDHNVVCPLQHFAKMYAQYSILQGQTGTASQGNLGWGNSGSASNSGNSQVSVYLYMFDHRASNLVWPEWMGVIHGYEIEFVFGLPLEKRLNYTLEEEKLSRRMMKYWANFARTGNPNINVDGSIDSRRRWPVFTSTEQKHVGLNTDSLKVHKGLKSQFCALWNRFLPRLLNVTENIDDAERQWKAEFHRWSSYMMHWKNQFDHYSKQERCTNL
BChE, sequence (P81908 whole entry): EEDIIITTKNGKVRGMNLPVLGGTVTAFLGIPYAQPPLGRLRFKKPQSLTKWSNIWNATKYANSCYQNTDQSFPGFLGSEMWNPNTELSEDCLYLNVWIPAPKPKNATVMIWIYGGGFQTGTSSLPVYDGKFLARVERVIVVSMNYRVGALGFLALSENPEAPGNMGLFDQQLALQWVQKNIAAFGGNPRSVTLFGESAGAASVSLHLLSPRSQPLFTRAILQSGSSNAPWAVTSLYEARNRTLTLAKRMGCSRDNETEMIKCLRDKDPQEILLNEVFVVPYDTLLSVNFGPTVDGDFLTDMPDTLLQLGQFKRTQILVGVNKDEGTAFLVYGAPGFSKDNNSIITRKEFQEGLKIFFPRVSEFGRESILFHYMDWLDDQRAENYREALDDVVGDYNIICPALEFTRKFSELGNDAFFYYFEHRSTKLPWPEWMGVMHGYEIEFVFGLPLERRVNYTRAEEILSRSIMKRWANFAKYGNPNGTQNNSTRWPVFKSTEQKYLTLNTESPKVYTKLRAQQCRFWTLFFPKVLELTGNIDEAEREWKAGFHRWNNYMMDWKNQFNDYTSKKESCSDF

Row | SMILES | IC50 [1] | Ki [1] | Selectivity index (AChE/BChE) [1] | IC50 [2] | Ki [2] | type of inhibition, AChE [1] | type of inhibition, BChE [2]
1 | CN(C)C(=O)c1ccc2nc(-c3ccc(-c4ccccc4)cc3)oc2c1 [Compound 13, 2-([1,1’-Biphenyl]-4-yl)-N,N-dimethylbenzo[d]oxazole-6-carboxamide] | 33.2 nM | 29.8 ± 1.02 nM | 0.46 | 63.5 nM | 65.4 ± 14.1 nM |  | 
2 | CCCN(CCC)C(=O)c1ccc2nc(-c3ccc(-c4ccccc4)cc3)oc2c1 [Compound 15, 2-([1,1’-Biphenyl]-4-yl)-N,N-dipropylbenzo[d]oxazole-6-carboxamide] | 40.7 nM | 38.2 ± 0.66 nM | 0.40 | 113 nM | 95.7 ± 7.32 nM |  | 
3 | CCCN(CCC)C(=O)c1ccc2nc(-c3cccc4ccccc34)oc2c1 [Compound 21, 2-(Naphthalen-1-yl)-N,Ndipropylbenzo[d]oxazole-6-carboxamide] | 67 nM | 71.6 ± 12 nM | 0.50 | 188 nM | 145 ± 11.2 nM |  | 
4 | CCN(CC)C(=O)c1ccc2nc(-c3ccc(-c4ccccc4)cc3)oc2c1 [Compound 14] | 30.8 nM | 19.8 ± 3.69 nM | 0.26 | 84.6 nM | 75.3 ± 13.8 nM |  | 
5 | CN(C)C(=O)c1ccc2nc(-c3cccc4ccccc34)oc2c1 [Compound 19, N,Ndimethyl-2-(naphthalen-1-yl)benzo[d]oxazole-6-carboxamide] | 39.6 nM | 38.8 ± 2.96 nM | 0.32 | 142 nM | 121 ± 15.5 nM |  | 
6 | O=C(c1ccc2nc(-c3ccco3)oc2c1)N1CCCC1 [Compound 40] | 52.1 nM | 34.9 ± 7.28 nM | 0.36 | 101 nM | 95.6 ± 20.2 nM |  | 
7 | O=C(c1ccc2nc(-c3ccc(-c4ccccc4)cc3)oc2c1)N1CCOCC1 [Compound 18, (2-([1,1’-Biphenyl]-4-yl)benzo[d]oxazol-6-yl)(morpholino)methanone] | 21.3 nM | 20.9 ± 4.22 nM | 0.37 | 65.1 nM | 56.7 ± 1.57 nM |  | 
8 | O=C(c1ccc2nc(-c3cccc4ccccc34)oc2c1)N1CCCC1 [Compound 22] | 43 nM | 41.9 ± 5.64 nM | 0.58 | 124 nM | 72.5 ± 5.66 nM |  | 
9 | CCCN(CCC)C(=O)c1ccc2nc(-c3ccncc3)oc2c1 [Compound 27, N,Ndipropyl-2-(pyridin-4-yl)benzo[d]oxazole-6-carboxamide] | 49.5 nM | 50 ± 5.13 nM | 0.72 | 87.1 nM | 69.7 ± 4.1 nM |  | 
10 | CCN(CC)C(=O)c1ccc2nc(-c3ccncc3)oc2c1 [Compound 26, N,Ndiethyl-2-(pyridin-4-yl)benzo[d]oxazole-6-carboxamide] | 48.1 nM | 83.1 ± 1.33 nM | 1.53 | 76.2 nM | 54.4 ± 4.85 nM |  | 
11 | CN(C)C(=O)c1ccc2nc(-c3cccs3)oc2c1 [Compound 43, N,Ndimethyl-2-(thiophen-2-yl)benzo[d]oxazole-6-carboxamide] | 29.2 nM | 19.9 ± 0.73 nM | 0.17 | 130 nM | 120 ± 25.7 nM |  | 
12 | O=C(c1ccc2nc(-c3cccc4ccccc34)oc2c1)N1CCOCC1 [Compound 24, Morpholino(2-(naphthalen-1-yl)benzo[d]oxazol-6-yl)methanone] | 50.9 nM | 45.7 ± 1.65 nM | 0.90 | 83.8 nM | 50.7 ± 14 nM |  | 
13 | CN(C)C(=O)c1ccc2nc(-c3ccncc3)oc2c1 [Compound 25, N,Ndimethyl-2-(pyridin-4-yl)benzo[d]oxazole-6-carboxamide] | 54.7 nM | 85.3 ± 11.2 nM | 1.28 | 93.6 nM | 66.4 ± 13.6 nM |  | 
14 | CN(C)C(=O)c1ccc2nc(-c3ccc[nH]3)oc2c1 [Compound 31, N,N-dimethyl-2-(1 H-pyrrol-2-yl)benzo[d]oxazole-6-carboxamide] | 36.8 nM | 30.7 ± 2.21 nM | 0.73 | 47.3 nM | 42 ± 6.32 nM |  | 
15 | O=C(c1ccc2nc(-c3ccco3)oc2c1)N1CCOCC1 [Compound 42] | 21 nM | 14.6 ± 3.01 nM | 0.30 | 58.7 nM | 48.6 ± 4.55 nM |  | 
16 | CCN(CC)C(=O)c1ccc2nc(-c3ccco3)oc2c1 [Compound 38, N,N-diethyl-2-(furan-2-yl)benzo[d]oxazole-6-carboxamide] | 52.8 nM | 41.2 ± 7.41 nM | 0.69 | 70.4 nM | 59.4 ± 8.01 nM |  | 
17 | CN(C)C(=O)c1ccc2nc(-c3ccccc3)oc2c1 [Compound 7, N,N -dimethyl-2-phenylbenzo[d]oxazole-6-carboxamide] | 32.9 nM | 23 ± 1.7 nM | 0.45 | 65.8 nM | 50.7 ± 6.43 nM |  | 

Row | SMILES | IC50 [1] | Ki [1] | Selectivity index (AChE/BChE) [1] | IC50 [2] | Ki [2] | type of inhibition, AChE [1] | type of inhibition, BChE [2]
18 | O=C(c1ccc2nc(-c3ccncc3)oc2c1)N1CCOCC1 [Compound 30, Morpholino(2-(pyridin-4-yl)benzo[d]oxazol-6-yl)methanone] | 24.3 nM | 18.3 ± 4.37 nM | 0.40 | 49.7 nM | 45.4 ± 3.04 nM |  | 
19 | O=C(c1ccc2nc(-c3ccncc3)oc2c1)N1CCCCC1 [Compound 29, Piperidin-1-yl(2-(pyridin-4-yl)benzo[d]oxazol-6-yl)methanone] | 28 nM | 27.4 ± 2.53 nM |  | 54.1 nM | 47.9 ± 8.42 nM |  | 
20 | O=C(c1ccc2nc(-c3ccncc3)oc2c1)N1CCCC1 [Compound 28] | 40.5 nM | 47.9 ± 4.7 nM | 0.91 | 57.2 nM | 52.9 ± 11.7 nM |  | 
21 | O=C(c1ccc2nc(-c3ccc[nH]3)oc2c1)N1CCOCC1 [Compound 36, (2-(1 H-pyrrol-2-yl)benzo[d]oxazol-6-yl)(morpholino)methanone] | 12.6 nM | 7.74 ± 0.75 nM | 0.38 | 25.4 nM | 20.3 ± 1.56 nM | mixed-type | mixed-type
22 | O=C(c1ccc2nc(-c3ccc(-c4ccccc4)cc3)oc2c1)N1CCCCC1 [Compound 17, (2-([1,1’-Biphenyl]-4-yl)benzo[d]oxazol-6-yl)(piperidin-1-yl)methanone] | 20.6 nM | 18.4 ± 3.33 nM | 0.37 | 58.9 nM | 49.2 ± 11.1 nM |  | 
23 | O=C(c1ccc2nc(-c3ccc[nH]3)oc2c1)N1CCCC1 [Compound 34, (2-(1 H-pyrrol-2-yl)benzo[d]oxazol-6-yl)(pyrrolidin-1-yl)methanone] | 26.7 nM | 15.5 ± 1.96 nM | 0.32 | 53.2 nM | 48.2 ± 2.56 nM |  | 
24 | O=C(c1ccc2nc(-c3cccs3)oc2c1)N1CCCCC1 [Compound 47, Piperidin-1-yl(2-(thiophen-2-yl)benzo[d]oxazol-6-yl)methanone] | 24 nM | 22.3 ± 4.11 nM | 0.48 | 65.2 nM | 46.6 ± 2.1 nM |  | 
25 | CCN(CC)C(=O)c1ccc2nc(-c3ccccc3)oc2c1 [Compound 8, N,N-diethyl-2-phenylbenzo[d]oxazole-6-carboxamide] | 34 nM | 30.6 ± 3.34 nM | 0.40 | 74 nM | 77 ± 5.25 nM |  | 
26 | CCCN(CCC)C(=O)c1ccc2nc(-c3ccco3)oc2c1 [Compound 39, 2-(Furan-2-yl)-N,N-dipropylbenzo[d]oxazole-6-carboxamide] | 28 nM | 38.5 ± 8.48 nM | 0.59 | 82.2 nM | 65.2 ± 8.33 nM |  | 
27 | O=C(c1ccc2nc(-c3ccc(-c4ccccc4)cc3)oc2c1)N1CCCC1 [Compound 16, (2-([1,1’-Biphenyl]-4-yl)benzo[d]oxazol-6-yl)(pyrrolidin-1-yl)methanone] | 26.3 nM | 26.7 ± 5.13 nM | 0.32 | 86.2 nM | 84 ± 12.4 nM |  | 
28 | O=C(c1ccc2nc(-c3ccc[nH]3)oc2c1)N1CCCCC1 [Compound 35, (2-(1 H-pyrrol-2-yl)benzo[d]oxazol-6-yl)(piperidin-1-yl)methanone] | 19 nM | 12.3 ± 1.28 nM | 0.27 | 49.2 nM | 44.5 ± 7.43 nM |  | 
29 | O=C(c1ccc2nc(-c3cccs3)oc2c1)N1CCCC1 [Compound 46, Pyrrolidin-1-yl(2-(thiophen-2-yl)benzo[d]oxazol-6-yl)methanone] | 31.5 nM | 29.2 ± 0.64 nM | 0.33 | 84.3 nM | 87.5 ± 13.6 nM |  | 
30 | CCCN(CCC)C(=O)c1ccc2nc(-c3ccc[nH]3)oc2c1 [Compound 33, N,N-dipropyl-2-(1 H-pyrrol-2-yl)benzo[d]oxazole-6-carboxamide] | 40.2 nM | 26.1 ± 3.35 nM | 0.68 | 55.5 nM | 38.5 ± 8.43 nM |  | 
31 | CCCN(CCC)C(=O)c1ccc2nc(-c3cccs3)oc2c1 [Compound 45, N,Ndipropyl-2-(thiophen-2-yl)benzo[d]oxazole-6-carboxamide] | 30.1 nM | 21.8 ± 1.45 nM | 0.30 | 85.2 nM | 72.5 ± 12.6 nM |  | 
32 | O=C(c1ccc2nc(-c3ccccc3)oc2c1)N1CCOCC1 [Compound 12] | 29.6 nM | 28.6 ± 3.96 nM | 0.88 | 34.5 nM | 32.3 ± 3.25 nM |  | 
33 | O=C(c1ccc2nc(-c3cccs3)oc2c1)N1CCOCC1 [Compound 48, Morpholino(2-(thiophen-2-yl)benzo[d]oxazol-6-yl)methanone] | 17.9 nM | 10.6 ± 0.58 nM | 0.47 | 33 nM | 22.7 ± 3.07 nM |  | 
